For one compound, activity results are on record in article PMC4144957, “Molecular Interaction Mechanism between 2-Mercaptobenzimidazole and Copper-Zinc Superoxide Dismutase” (PLoS ONE, 2014).

The test has as its target T1, Cu/ZnSOD from porcine erythrocytes (Sus scrofa, UniProt P04178).
T1 construct: gene SOD1; native, purchased (Biodee Biotechnology), from porcine erythrocytes; homodimer; human structure 1HL4 used only for docking
The experiment in a line: NBT photoreduction assay. As to conditions: read-out: relative activity (%) at 100 nM MBI. It is filed as biochemical.

T1 sequence (P04178 2-153): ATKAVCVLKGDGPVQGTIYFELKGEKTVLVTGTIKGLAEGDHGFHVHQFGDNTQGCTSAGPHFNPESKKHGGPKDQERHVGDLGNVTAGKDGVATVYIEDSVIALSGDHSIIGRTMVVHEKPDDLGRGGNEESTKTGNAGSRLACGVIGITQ

Take `S=c1[nH]c2ccccc2[nH]1` [MBI]: the activity at 0.1 µM worked out at 89.3 ± 1.2%.
